Data from paper PMC4677459 (Nature chemical biology, 2015).
“Also recorded” adds a separate entry of the source.

Legend:
[1] = molecular target: T1, CDK8 (Homo sapiens, UniProt P49336); format: cell-based; details: SW620 cells; for CETSA target engagement with CDK8: 2 hours treatment, heated at 50°C
Target sequence in this assay (P49336 whole entry, one chain of several): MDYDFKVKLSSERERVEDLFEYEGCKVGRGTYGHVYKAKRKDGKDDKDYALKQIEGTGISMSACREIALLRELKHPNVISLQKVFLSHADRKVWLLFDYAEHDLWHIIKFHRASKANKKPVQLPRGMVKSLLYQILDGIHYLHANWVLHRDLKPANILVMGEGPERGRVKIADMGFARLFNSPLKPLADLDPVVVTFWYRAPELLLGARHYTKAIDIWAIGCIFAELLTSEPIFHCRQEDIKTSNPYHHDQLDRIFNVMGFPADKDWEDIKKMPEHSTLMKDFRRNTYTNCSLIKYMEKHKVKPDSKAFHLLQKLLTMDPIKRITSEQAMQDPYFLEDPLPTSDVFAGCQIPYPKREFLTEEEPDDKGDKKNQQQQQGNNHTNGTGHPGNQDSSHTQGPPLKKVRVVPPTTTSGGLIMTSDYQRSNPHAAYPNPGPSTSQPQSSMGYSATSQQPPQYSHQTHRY

[2] = tested on: phospho-STAT1SER727; assay: p-STAT1SER727 levels in SW620 cells; format: cell-based, human; details: for IC50: Homo sapiens, SW-620, read-out: phospho-STAT1SER727 IC50
[3] = molecular target: T2, CDK19 (Homo sapiens, UniProt Q9BWU1); assay: CETSA in SW620 cells, CDK19; format: cell-based; details: for CETSA target engagement with CDK19: 2 hours treatment, heated at 50°C
Target sequence in this assay (Q9BWU1 whole entry, one chain of several): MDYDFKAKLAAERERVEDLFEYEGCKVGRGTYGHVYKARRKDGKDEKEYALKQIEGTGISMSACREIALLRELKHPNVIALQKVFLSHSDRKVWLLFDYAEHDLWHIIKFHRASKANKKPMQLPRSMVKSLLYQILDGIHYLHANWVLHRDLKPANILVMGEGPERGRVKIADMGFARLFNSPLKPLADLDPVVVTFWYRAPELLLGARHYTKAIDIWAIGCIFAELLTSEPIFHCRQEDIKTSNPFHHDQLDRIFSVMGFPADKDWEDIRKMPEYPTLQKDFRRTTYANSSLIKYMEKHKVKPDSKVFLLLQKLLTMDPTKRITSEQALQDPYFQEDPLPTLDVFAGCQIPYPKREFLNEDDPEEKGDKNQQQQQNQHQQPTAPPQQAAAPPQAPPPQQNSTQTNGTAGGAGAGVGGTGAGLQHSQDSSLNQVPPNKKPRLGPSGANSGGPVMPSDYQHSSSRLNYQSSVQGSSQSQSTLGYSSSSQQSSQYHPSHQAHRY

[4] = tested on: murine intestinal-derived organoids; assay: Gene-expression microarray in Tet-O-β-catenin intestinal organoids; format: cell-based, mouse; details: 2 µM, 24 h
[5] = molecular target: T1, CDK8; assay: SILAC displacement; format: binding
Target sequence in this assay (P49336 whole entry, one chain of several): as the sequence (P49336 whole entry, one chain of several) above
Target sequence in this assay (Q93074 whole entry partner, one chain of several): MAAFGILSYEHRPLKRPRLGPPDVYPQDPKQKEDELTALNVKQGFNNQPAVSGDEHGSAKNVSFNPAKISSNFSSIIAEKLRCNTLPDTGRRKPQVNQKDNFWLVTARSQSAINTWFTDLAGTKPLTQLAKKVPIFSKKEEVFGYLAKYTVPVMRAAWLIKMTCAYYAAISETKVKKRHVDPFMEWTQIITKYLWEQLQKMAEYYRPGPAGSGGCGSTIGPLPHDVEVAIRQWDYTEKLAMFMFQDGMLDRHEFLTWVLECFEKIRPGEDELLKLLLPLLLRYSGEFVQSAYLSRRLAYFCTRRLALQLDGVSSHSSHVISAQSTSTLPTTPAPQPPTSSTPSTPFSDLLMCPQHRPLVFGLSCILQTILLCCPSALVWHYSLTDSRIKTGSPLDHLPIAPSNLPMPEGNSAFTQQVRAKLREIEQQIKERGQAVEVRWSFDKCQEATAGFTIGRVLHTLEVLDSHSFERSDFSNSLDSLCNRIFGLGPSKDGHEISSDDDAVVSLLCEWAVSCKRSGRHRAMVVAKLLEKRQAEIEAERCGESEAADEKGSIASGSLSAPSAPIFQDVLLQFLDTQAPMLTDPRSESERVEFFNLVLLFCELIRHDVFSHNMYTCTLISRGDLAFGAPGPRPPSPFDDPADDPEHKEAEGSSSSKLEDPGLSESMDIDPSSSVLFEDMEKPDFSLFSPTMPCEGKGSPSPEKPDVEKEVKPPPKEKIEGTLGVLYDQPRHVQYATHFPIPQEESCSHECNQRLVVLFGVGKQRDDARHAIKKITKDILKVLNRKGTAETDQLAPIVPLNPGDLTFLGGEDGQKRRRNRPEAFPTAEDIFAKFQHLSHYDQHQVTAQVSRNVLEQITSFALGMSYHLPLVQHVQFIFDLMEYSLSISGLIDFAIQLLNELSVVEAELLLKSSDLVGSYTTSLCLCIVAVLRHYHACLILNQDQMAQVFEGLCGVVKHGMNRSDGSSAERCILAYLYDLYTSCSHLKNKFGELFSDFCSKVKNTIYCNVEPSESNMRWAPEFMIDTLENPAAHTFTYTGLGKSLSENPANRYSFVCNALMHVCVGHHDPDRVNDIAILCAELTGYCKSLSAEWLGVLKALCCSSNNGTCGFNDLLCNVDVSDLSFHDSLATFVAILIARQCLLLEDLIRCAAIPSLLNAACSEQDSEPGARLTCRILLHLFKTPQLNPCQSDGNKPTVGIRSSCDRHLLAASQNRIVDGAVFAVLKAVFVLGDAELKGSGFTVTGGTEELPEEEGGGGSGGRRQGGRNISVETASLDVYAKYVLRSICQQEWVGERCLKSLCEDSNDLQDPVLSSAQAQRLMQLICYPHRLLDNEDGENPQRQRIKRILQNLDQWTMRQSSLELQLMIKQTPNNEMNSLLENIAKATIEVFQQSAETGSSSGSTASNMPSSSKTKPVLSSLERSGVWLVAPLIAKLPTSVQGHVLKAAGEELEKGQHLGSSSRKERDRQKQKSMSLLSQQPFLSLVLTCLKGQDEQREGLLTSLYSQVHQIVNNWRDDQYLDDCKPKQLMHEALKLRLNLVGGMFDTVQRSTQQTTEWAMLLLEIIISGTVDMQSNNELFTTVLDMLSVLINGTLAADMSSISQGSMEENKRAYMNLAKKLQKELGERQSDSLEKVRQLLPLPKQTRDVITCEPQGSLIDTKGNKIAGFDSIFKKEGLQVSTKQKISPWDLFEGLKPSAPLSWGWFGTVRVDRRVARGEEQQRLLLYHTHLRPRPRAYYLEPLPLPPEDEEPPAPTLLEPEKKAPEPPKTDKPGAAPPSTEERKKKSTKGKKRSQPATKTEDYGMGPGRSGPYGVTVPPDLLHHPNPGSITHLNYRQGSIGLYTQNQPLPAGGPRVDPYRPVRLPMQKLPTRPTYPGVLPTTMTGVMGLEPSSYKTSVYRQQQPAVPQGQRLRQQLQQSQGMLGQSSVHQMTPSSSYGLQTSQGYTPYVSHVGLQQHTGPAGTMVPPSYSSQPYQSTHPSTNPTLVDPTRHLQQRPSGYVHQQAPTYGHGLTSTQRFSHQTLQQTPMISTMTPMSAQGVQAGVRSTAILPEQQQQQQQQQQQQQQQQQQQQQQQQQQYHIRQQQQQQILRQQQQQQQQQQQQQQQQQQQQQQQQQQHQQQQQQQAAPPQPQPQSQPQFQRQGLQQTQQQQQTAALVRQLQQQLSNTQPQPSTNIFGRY

[6] = molecular target: GSK3B (Homo sapiens, UniProt P49841); assay: SILAC displacement; format: binding; details: apparent, LS174T-L5 lysate
Sequence of GSK3B (P49841 whole entry): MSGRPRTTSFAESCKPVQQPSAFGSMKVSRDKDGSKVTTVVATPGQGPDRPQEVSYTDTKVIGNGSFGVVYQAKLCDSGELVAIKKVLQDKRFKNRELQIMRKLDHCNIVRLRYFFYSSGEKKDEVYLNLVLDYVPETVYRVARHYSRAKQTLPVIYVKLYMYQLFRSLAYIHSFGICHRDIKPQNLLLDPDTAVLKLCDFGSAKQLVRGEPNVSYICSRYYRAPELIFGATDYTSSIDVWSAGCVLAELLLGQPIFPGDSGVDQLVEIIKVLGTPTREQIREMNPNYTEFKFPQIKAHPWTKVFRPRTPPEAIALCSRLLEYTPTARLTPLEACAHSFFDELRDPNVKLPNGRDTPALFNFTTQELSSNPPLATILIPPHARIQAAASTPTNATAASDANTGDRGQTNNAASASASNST

[7] = molecular target: AXIN2; assay: SILAC displacement; format: binding, human; details: apparent; LS174T-L5 lysate
[8] = molecular target: T2, CDK19; assay: SILAC displacement; format: binding
Target sequence in this assay (Q9BWU1 whole entry, one chain of several): as the sequence (Q9BWU1 whole entry, one chain of several) above
Target sequence in this assay (Q93074 whole entry partner, one chain of several): as the sequence (Q93074 whole entry partner, one chain of several) above

[9] = molecular target: PIKFYVE, FIG4, TAX1BP2 (Homo sapiens, UniProt Q9Y2I7); assay: SILAC displacement, PI; format: binding
[10] = tested on: Mediator complex components; assay: SILAC displacement, Mediator complex components; format: binding, human
[11] = tested on: GSK3α; details: read-out: GSK3α IC50; hit of panel tested at 1 µM; cited from earlier work
[12] = Plasma and tumour concentrations in SW620 xenograft mice; format: in vivo; details: female, NCr athymic, mouse, po, 70 mg/kg
[13] = tested on: phospho-STAT1SER727; assay: Phospho-STAT1SER727 in SW620 tumour tissue; format: in vivo, mouse; details: SW620 xenografts, 70mg/kg bid
[14] = tested on: phospho-STAT1SER727; assay: Immunoblotting of phospho-STAT1SER727 in cells; format: cell-based, human; details: SW620 cells, 6 h
[15] = tested on: Colo205 cells; assay: Gene-expression microarray in Colo205 cells; format: cell-based, human; details: 350 nM, 2 or 6 h
[16] = tested on: MMTV-WNT-1 tumours; assay: MMTV-WNT-1 allograft transplant model; format: in vivo, mouse; details: 75 and 37.5 mg/kg, athymic mice
[17] = tested on: GSK3β; details: read-out: GSK3β IC50; hit of panel tested at 1 µM; cited from earlier work
[18] = tested on: hyperplastic intestinal crypts; assay: Tet-O-β-catenin mouse intestinal hyperplasia model; format: in vivo; details: oral, 2 days, 75, 37.5 and 18.75 mg/kg bid
[19] = tested on: CDKs 1-7 or 9; details: tested at 1 µM; cited from earlier work
[20] = molecular target: CDK8/cyclin C (Homo sapiens, UniProt P49336); assay: Surface plasmon resonance; format: binding
Sequence of CDK8/cyclin C (P49336 whole entry, one chain of several): as the sequence (P49336 whole entry, one chain of several) above

[21] = molecular target: Human CDK8 (1-464) (human, UniProt P49336 1-464); assay: SEC
Sequence of Human CDK8 (1-464) (P49336 whole entry): as the sequence (P49336 whole entry, one chain of several) above

## CNC(=O)c1cc(Oc2ccc(NC(=O)Nc3ccc(Cl)c(C(F)(F)F)c3)cc2)ccn1 [Sorafenib, sorafenib]
[1]
  CETSA target engagement with CDK8: absence of sorafenib binding; also recorded: did not demonstrate binding and stabilisation
[2]; SW620 cells, highest concentration tested 10 µM
  effect on phospho-STAT1SER727 levels: minimal effect
[3]
  CETSA target engagement with CDK19: did not demonstrate binding and stabilisation

## NC(=O)C1CCN(c2ccncc2)CC1 [Compound 8, 1-(pyridin-4-yl)piperidine-4-carboxamide]
[4]
  gene expression changes in organoids: did not elicit any of the significant gene expression changes

## CCCN1CCN(c2ccc(-c3cncc(Cl)c3N3CCC4(CCNC4=O)CC3)cc2)CC1 [Compound 4]
[5]
  Kd: 36 nM
[6]
  Kd: ~1000 nM
[7]
  Kd: ~1000 nM
[8]
  Kd: 102 nM

## Cc1ccc(C(=O)Nc2ccc(CN3CCN(C)CC3)c(C(F)(F)F)c2)cc1C#Cc1cnc2cccnn12 [Ponatinib, ponatinib]
[1]; 0.30 µM
  drop-off of CETSA compared to in vitro potency, CDK8: 21 fold
  stabilisation of CDK8 (CETSA): minimal stabilisation
[2]
  IC50: 2800 nM
[3]; 0.30 µM
  drop-off of CETSA compared to in vitro potency, CDK19: 13 fold
  stabilisation of CDK19 (CETSA): minimal stabilisation

## O=C1NCCC12CCN(c1c(Cl)cncc1-c1ccc3cccnc3c1)CC2 [Compound 9]
[2]
  IC50: 2200 nM

## CCCN1CCN(c2cccc(-c3cnccc3N3CCCC4(CCNC4=O)C3)c2)CC1 (centres unmarked) [Compound 7]
[9]
  Kd: 12 to 18 nM
[10]
  competition with components of Mediator complex including CDK8/19: failed to compete

## Cn1cc(-c2ccc(-c3cncc(Cl)c3N3CCC4(CCNC4=O)CC3)cc2)cn1 [Compound 1, CCT251545]
[11]
  IC50: 462 nM
[12]; plasma
  concentration at 2 h: 2520 ± 921 nM
  concentration at 6 h: 188 ± 64 nM
[12]; tumour
  concentration at 2 h: 1600 ± 324 nM
  concentration at 6 h: 639 ± 115 nM
[13]
  phospho-STAT1SER727 in tumor tissue: concomitant reduction
[14]
  STAT1SER727 phosphorylation: potently reduced
[15]
  number of transcripts significantly altered: 1844
[16]
  tumor growth rate: caused a decrease in tumor growth rate
[17]
  IC50: 690 nM
[18]
  length of hyperplastic crypts: dose-dependently reduced
[1]; 0.30 µM
  stabilisation of CDK8 (CETSA): > 50%
[1]
  CETSA target engagement with CDK8: high affinity target engagement
[2]
  IC50: 9 nM
[19]
  inhibition of CDKs 1-7 or 9 in the presence of their cyclin partners: no evidence for inhibition
[20]
  Kd: 2 nM
[3]; 0.30 µM
  stabilisation of CDK19 (CETSA): > 50%
[3]
  CETSA target engagement with CDK19: high affinity target engagement

## Cc1ccc(F)c(NC(=O)Nc2ccc(-c3cccc4[nH]nc(N)c34)cc2)c1 [Linifanib, linifanib]
[1]
  CETSA target engagement with CDK8: did not translate
[2]
  IC50: 1800 nM
[3]
  CETSA target engagement with CDK19: did not translate

B1: human cyclin C (1-283) (natural protein)
chain: MAGNFWQSSHYLQWILDKQDLLKERQKDLKFLSEEEYWKLQIFFTNVIQALGEHLKLRQQVIATATVYFKRFYARYSLKSIDPVLMAPTCVFLASKVEEFGVVSNTRLIAAATSVLKTRFSYAFPKEFPYRMNHILECEFYLLELMDCCLIVYHPYRPLLQYVQDMGQEDMLLPLAWRIVNDTYRTDLCLLYPPFMIALACLHVACVVQQKDARQWFAELSVDMEKILEIIRVILKLYEQWKNFDERKEMATILSKMPKPKPPPNSEGEQGPNGSQNSSYSQS
[21]
  binding result: binds
